Laboratory results reported in the supplement of paper PMC13380429.

What was measured:
Details in all cases: 72 h
[1] = system: Vero E6; experiment: relative viability EC50 (midpoint between 100% and the lowest measured viability); higher = less toxic
[2] = system: Caco-2; experiment: as above
[3] = system: Calu-3; experiment: as above
[4] = system: U2OS; experiment: as above
[5] = system: HepG2; experiment: as above
[6] = system: Vero E6; experiment: cell viability relative to DMSO; higher = less toxic
[7] = system: Caco-2; experiment: as above
[8] = system: Calu-3; experiment: as above
[9] = system: U2OS; experiment: as above
[10] = system: HepG2; experiment: as above
[11] = system: Vero E6; experiment: drug sensitivity score (DSS) for viability; higher = more toxic; extreme values may be limits of the assay
[12] = system: Caco-2; experiment: as above
[13] = system: Calu-3; experiment: as above
[14] = system: U2OS; experiment: as above
[15] = system: HepG2; experiment: as above

SMILES | relative viability EC50 [1] | relative viability EC50 [2] | relative viability EC50 [3] | relative viability EC50 [4] | relative viability EC50 [5] | cell viability ([6]; 1 nM) | cell viability ([6]; 10 nM) | cell viability ([6]; 100 nM) | cell viability ([6]; 1000 nM) | cell viability ([6]; 10000 nM) | cell viability ([7]; 1 nM) | cell viability ([7]; 10 nM) | cell viability ([7]; 100 nM) | cell viability ([7]; 1000 nM) | cell viability ([7]; 10000 nM) | cell viability ([8]; 1 nM) | cell viability ([8]; 10 nM) | cell viability ([8]; 100 nM) | cell viability ([8]; 1000 nM) | cell viability ([8]; 10000 nM) | cell viability ([9]; 1 nM) | cell viability ([9]; 10 nM) | cell viability ([9]; 100 nM) | cell viability ([9]; 1000 nM) | cell viability ([9]; 10000 nM) | cell viability ([10]; 1 nM) | cell viability ([10]; 10 nM) | cell viability ([10]; 100 nM) | cell viability ([10]; 1000 nM) | cell viability ([10]; 10000 nM) | drug sensitivity score [11] | drug sensitivity score [12] | drug sensitivity score [13] | drug sensitivity score [14] | drug sensitivity score [15]
COC(=O)CC[C@@H]1N=C(c2ccccn2)c2cc(Br)ccc2-n2c(C)cnc21 [remimazolam] | > 10 µM | > 10 µM | > 10 µM | > 10 µM | > 10 µM | 103% | 96.5% | 99.3% | 96% | 99.8% | 95.2% | 101% | 95.3% | 99.2% | 91.7% | 104% | 94.1% | 111% | 90% | 95.2% | 96.4% | 105% | 97.7% | 98% | 97.8% | 97.1% | 83.5% | 103% | 100% | 108% | 0 | 0 | 0 | 0 | 0
CCCC(=O)O [sodium-butyrate] | > 10 µM | > 10 µM | > 10 µM | > 10 µM | > 10 µM | 109% | 101% | 102% | 99.4% | 100% | 104% | 95.8% | 100% | 99.9% | 98.9% | 103% | 95.8% | 96.2% | 97.7% | 102% | 104% | 102% | 98.6% | 106% | 96.5% | 109% | 91.8% | 102% | 91.2% | 99.1% | 0 | 0 | 0 | 0 | 0
O=c1c(O)c(-c2ccc(O)c(O)c2)oc2cc(O)ccc12 [fisetin] | > 10 µM | > 10 µM | > 10 µM | > 10 µM | > 10 µM | 93.3% | 97.9% | 91.3% | 97.1% | 103% | 96.8% | 104% | 95.3% | 96.8% | 92.8% | 93.2% | 90.1% | 95.3% | 101% | 83.2% | 97.5% | 97.6% | 102% | 94.8% | 98% | 95% | 111% | 104% | 107% | 105% | 0 | 0 | 0.3 | 0 | 0
CC(/C=C1\SC(=S)N(CC(=O)O)C1=O)=C\c1ccccc1 [epalrestat] | > 10 µM | > 10 µM | > 10 µM | > 10 µM | > 10 µM | 98.3% | 95.4% | 94.7% | 101% | 102% | 92.6% | 87.2% | 95.8% | 104% | 98.8% | 102% | 96.8% | 96.7% | 97.8% | 107% | 99.4% | 98.1% | 98.4% | 103% | 100% | 100% | 96.4% | 102% | 95.6% | 106% | 0 | 0 | 0 | 0 | 0
Cc1ccc(N2CCN(CC[C@H]3NC(=O)c4ccccc43)CC2)cc1C | > 10 µM | > 10 µM | > 10 µM | > 10 µM | > 10 µM | 90.8% | 97.7% | 93.4% | 98.7% | 111% | 97.3% | 90.7% | 92.4% | 97% | 96.4% | 104% | 96.1% | 95.6% | 99.7% | 113% | 96.7% | 101% | 98.9% | 96.2% | 102% | 90.2% | 96.1% | 96.2% | 95.2% | 97.3% | 0 | 0 | 0 | 0 | 0
COc1ccc(S(=O)(=O)Nc2c(C)cc(C)cc2C)cc1 | > 10 µM | > 10 µM | > 10 µM | > 10 µM | > 10 µM | 101% | 105% | 97.2% | 101% | 93.7% | 106% | 94.2% | 93.6% | 94.9% | 94.1% | 103% | 96.5% | 94.6% | 106% | 102% | 103% | 98.7% | 101% | 98.5% | 99.6% | 105% | 98% | 105% | 99.5% | 97.3% | 0 | 0 | 0 | 0 | 0
